Data reported in publication PMC8851660 (ACS Omega, 2022).
Converted amounts (≈) assume the structure as drawn.

Tests used:
[1] = test system: P. aeruginosa MDR; assay: microbe, parasite or virus in culture; type: cell-based, Pseudomonas aeruginosa; conditions: for MIC: Pseudomonas aeruginosa, read-out: Gram-negative MIC P. aeruginosa MDR
[2] = test system: E. coli MDR; assay: microbe, parasite or virus in culture; type: cell-based; conditions: Escherichia coli, read-out: Gram-negative MIC E. coli MDR
[3] = test system: S. aureus clinical; assay: microbe, parasite or virus in culture; type: cell-based; conditions: Staphylococcus aureus, read-out: Gram-positive MIC S. aureus clinical
[4] = test system: E. coli (ATCC 25922); assay: microbe, parasite or virus in culture; type: cell-based; conditions: Escherichia coli, ATCC25922, read-out: Gram-negative MIC E. coli ATCC 25922
[5] = test system: C. albicans clinical; assay: microbe, parasite or virus in culture; type: cell-based, Candida albicans; conditions: for MIC: Candida albicans, read-out: fungi MIC C. albicans clinical
[6] = test system: P. aeruginosa (ATCC 29853); type: cell-based, Pseudomonas aeruginosa

Compound	MIC [1]	MIC [2]	MIC [3]	MIC [4]	MIC [5]	Gram-negative MIC P. aeruginosa MDR [1]	Gram-negative MIC P. aeruginosa (ATCC 29853) [6]	fungi MIC C. albicans clinical [5]
O=[N+]([O-])c1ccc(Oc2cccc3cccnc23)c([N+](=O)[O-])c1 [Compound 8, 8-(2,4-Dinitrophenoxy)quinoline]	125 µg/mL (≈ 402 µM)	125 µg/mL (≈ 402 µM)	125 µg/mL (≈ 402 µM)	125 µg/mL (≈ 402 µM)	125 µg/mL (≈ 402 µM)	–	–	–
CC1(C)S[C@@H]2[C@H](NC(=O)[C@H](N)c3ccc(O)cc3)C(=O)N2[C@H]1C(=O)O [AMOX, amoxicillin, reference compound]	> 500 µg/mL	250 µg/mL (≈ 684 µM)	≤ 7.81 µg/mL	62.5 µg/mL (≈ 171 µM)	–	>500 µg/mL	>500 µg/mL	–
C[C@@H]1[C@H](O)[C@@H](C)/C=C/C=C/CC/C=C/C=C/C=C/C=C/C(O[C@H]2O[C@H](C)[C@@H](O)[C@H](N)[C@@H]2O)CC2O[C@](O)(CC(O)C(O)CCC(O)CC(O)CC(O)CC(=O)O[C@H]1C)CC(O)C2C(=O)O (stereo partly drawn) [NYS, nystatin, reference compound]	–	–	–	–	–	–	–	<2 µg/mL
Cn1ccc(=O)nc1Sc1ccc([N+](=O)[O-])cc1[N+](=O)[O-] [Compound 7, 2-[(2,4-Dinitrophenyl)thio]-1-methylpyrimidin-4(1H)-one]	125 µg/mL (≈ 405 µM)	125 µg/mL (≈ 405 µM)	32.2 µg/mL (≈ 105 µM)	64.5 µg/mL (≈ 209 µM)	16.1 µg/mL (≈ 52.3 µM)	–	–	–
O=c1c(Cc2ccccc2)nc2ccccc2n1-c1ccc([N+](=O)[O-])cc1[N+](=O)[O-] [Compound 5, 3-Benzyl-1-(2,4-dinitrophenyl)quinoxalin-2(1H)-one]	125 µg/mL (≈ 311 µM)	> 500 µg/mL	500 µg/mL (≈ 1240 µM)	> 500 µg/mL	> 500 µg/mL	–	–	–
Cc1nc2ccccc2n(-c2ccc([N+](=O)[O-])cc2[N+](=O)[O-])c1=O [Compound 4, 1-(2,4-Dinitrophenyl)-3-methylquinoxalin-2(1H)-one]	125 µg/mL (≈ 383 µM)	125 µg/mL (≈ 383 µM)	16.1 µg/mL (≈ 49.4 µM)	125 µg/mL (≈ 383 µM)	125 µg/mL (≈ 383 µM)	–	–	–
O=[N+]([O-])c1ccc(Sc2nc3ccccc3s2)c([N+](=O)[O-])c1 [Compound 6, 2-[(2,4-Dinitrophenyl)thio]benzo[d]thiazole]	125 µg/mL (≈ 375 µM)	> 500 µg/mL	500 µg/mL (≈ 1500 µM)	500 µg/mL (≈ 1500 µM)	500 µg/mL (≈ 1500 µM)	–	–	–
O=[N+]([O-])c1ccc(-n2ccnc2)c([N+](=O)[O-])c1 [Compound 11, 1-(2,4-Dinitrophenyl)-1H-imidazole]	125 µg/mL (≈ 534 µM)	125 µg/mL (≈ 534 µM)	125 µg/mL (≈ 534 µM)	125 µg/mL (≈ 534 µM)	125 µg/mL (≈ 534 µM)	–	–	–
CC(C)(C)c1cccc(C(C)(C)C)c1Oc1ccc([N+](=O)[O-])cc1[N+](=O)[O-] [Compound 9, 1,3-Di-tert-butyl-2-(2,4-dinitrophenoxy)benzene]	125 µg/mL (≈ 336 µM)	125 µg/mL (≈ 336 µM)	500 µg/mL (≈ 1340 µM)	> 500 µg/mL	> 500 µg/mL	–	–	–
